#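 Step 1: Grow cells in 96-well plates. Step 2: Expose to compound for 48 hours at 5 concentrations. Step 3: Interpolate endpoints linearly; if unreached, use highest concentration. GI50: concentration for 50% inhibition of growth.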 Activity calls are given as the source filed them. Rule as the data show it: active = GI50 up to about 1.1 µM and inactive = higher.
# Experiments:
# Assay in all cases: NCI-60 cell line screen, 48 h
# 786-0 = tested on: 786-0
# A549 = tested on: A549
# ACHN = tested on: ACHN
# BT-549 = tested on: BT-549
# CAKI-1 = tested on: CAKI-1
# CCRF-CEM = tested on: CCRF-CEM
# COLO 205 = tested on: COLO 205
# DU-145 = tested on: DU-145
# EKVX = tested on: EKVX
# HCC 2998 = tested on: HCC 2998
# HCT-116 = tested on: HCT-116
# HCT-15 = tested on: HCT-15
# HL-60 = tested on: HL-60
# HOP-62 = tested on: HOP-62
# HOP-92 = tested on: HOP-92
# HT-29 = tested on: HT-29
# Hs-578T = tested on: Hs-578T
# IGROV-1 = tested on: IGROV-1
# K562 = tested on: K562
# KM12 = tested on: KM12
# LOX IMVI = tested on: LOX IMVI
# M14 = tested on: M14
# MCF7 = tested on: MCF7
# MDA-MB-231 = tested on: MDA-MB-231
# MDA-MB-435 = tested on: MDA-MB-435
# MDA-N = tested on: MDA-N
# MOLT-4 = tested on: MOLT-4
# Malme-3M = tested on: Malme-3M
# NCI-H226 = tested on: NCI-H226
# NCI-H23 = tested on: NCI-H23
# NCI-H460 = tested on: NCI-H460
# NCI/ADR-RES = tested on: NCI/ADR-RES
# OVCAR-3 = tested on: OVCAR-3
# OVCAR-4 = tested on: OVCAR-4
# OVCAR-5 = tested on: OVCAR-5
# OVCAR-8 = tested on: OVCAR-8
# PC-3 = tested on: PC-3
# RPMI-8226 = tested on: RPMI-8226
# RXF 393 = tested on: RXF 393
# SF-268 = tested on: SF-268
# SF-295 = tested on: SF-295
# SF-539 = tested on: SF-539
# SK-MEL-28 = tested on: SK-MEL-28
# SK-MEL-2 = tested on: SK-MEL-2
# SK-MEL-5 = tested on: SK-MEL-5
# SK-OV-3 = tested on: SK-OV-3
# SN12C = tested on: SN12C
# SNB-19 = tested on: SNB-19
# SNB-75 = tested on: SNB-75
# SR = tested on: SR
# SW-620 = tested on: SW-620
# T47D = tested on: T47D
# TK-10 = tested on: TK-10
# U-251 = tested on: U-251
# UACC-257 = tested on: UACC-257
# UACC-62 = tested on: UACC-62
# UO-31 = tested on: UO-31
# NCI-H522 = tested on: NCI-H522
smiles,measurement,setting,value
CC(C)NC(=O)OCCN=c1c2ccccc2ccc2ccccc12,GI50,786-0,59.4 µM (inactive)
same,GI50,A549,29.3 µM (inactive)
same,GI50,ACHN,43.1 µM (inactive)
same,GI50,BT-549,49.4 µM (inactive)
same,GI50,CAKI-1,35.9 µM (inactive)
same,GI50,CCRF-CEM,21 µM (inactive)
same,GI50,COLO 205,27.7 µM (inactive)
same,GI50,DU-145,56.2 µM (inactive)
same,GI50,EKVX,35 µM (inactive)
same,GI50,HCC 2998,40 µM (inactive)
same,GI50,HCT-116,34.7 µM (inactive)
same,GI50,HCT-15,38.7 µM
same,GI50,HL-60,15.8 µM (inactive)
same,GI50,HOP-62,41.9 µM (inactive)
same,GI50,HOP-92,27.2 µM (inactive)
same,GI50,HT-29,39.2 µM (inactive)
same,GI50,Hs-578T,35.2 µM (inactive)
same,GI50,IGROV-1,47.5 µM (inactive)
same,GI50,K562,25 µM (inactive)
same,GI50,KM12,44.7 µM (inactive)
same,GI50,LOX IMVI,44.9 µM (inactive)
same,GI50,M14,36 µM (inactive)
same,GI50,MCF7,44.9 µM (inactive)
same,GI50,MDA-MB-231,32.1 µM (inactive)
same,GI50,MDA-MB-435,46.6 µM (inactive)
same,GI50,MDA-N,40.6 µM (inactive)
same,GI50,MOLT-4,24.4 µM (inactive)
same,GI50,Malme-3M,46.1 µM (inactive)
same,GI50,NCI-H226,30.4 µM (inactive)
same,GI50,NCI-H23,> 100 µM (inactive)
same,GI50,NCI-H460,45.6 µM (inactive)
same,GI50,NCI/ADR-RES,32.6 µM (inactive)
same,GI50,OVCAR-3,34.4 µM (inactive)
same,GI50,OVCAR-4,33.9 µM (inactive)
same,GI50,OVCAR-5,88.9 µM (inactive)
same,GI50,OVCAR-8,57.1 µM (inactive)
same,GI50,PC-3,23.8 µM (inactive)
same,GI50,RPMI-8226,> 10 µM (inactive)
same,GI50,RXF 393,36.8 µM (inactive)
same,GI50,SF-268,63.7 µM (inactive)
same,GI50,SF-295,38.2 µM (inactive)
same,GI50,SF-539,53.2 µM (inactive)
same,GI50,SK-MEL-28,32.4 µM (inactive)
same,GI50,SK-MEL-2,23.7 µM (inactive)
same,GI50,SK-MEL-5,17.6 µM (inactive)
same,GI50,SK-OV-3,47.6 µM (inactive)
same,GI50,SN12C,34.8 µM (inactive)
same,GI50,SNB-19,24.4 µM (inactive)
same,GI50,SNB-75,62.5 µM (inactive)
same,GI50,SR,24.8 µM (inactive)
same,GI50,SW-620,64.1 µM (inactive)
same,GI50,T47D,15.6 µM (inactive)
same,GI50,TK-10,50.7 µM (inactive)
same,GI50,U-251,38.3 µM (inactive)
same,GI50,UACC-257,42.6 µM (inactive)
same,GI50,UACC-62,31.4 µM (inactive)
same,GI50,UO-31,23.5 µM (inactive)
CN(C)c1ccc(/N=N\c2cccc3ncccc23)cc1,GI50,786-0,> 80.4 µM (inactive)
same,GI50,A549,63.7 µM (inactive)
same,GI50,ACHN,35.6 µM (inactive)
same,GI50,BT-549,65.5 µM (inactive)
same,GI50,CAKI-1,> 93.8 µM (inactive)
same,GI50,CCRF-CEM,51.3 µM (inactive)
same,GI50,COLO 205,64 µM (inactive)
same,GI50,DU-145,75.7 µM (inactive)
same,GI50,EKVX,11.7 µM (inactive)
same,GI50,HCC 2998,0.302 µM (active)
same,GI50,HCT-116,52.7 µM (inactive)
same,GI50,HCT-15,51.9 µM
same,GI50,HL-60,12.8 µM (inactive)
same,GI50,HOP-62,93.5 µM (inactive)
same,GI50,HOP-92,36.9 µM (inactive)
same,GI50,HT-29,39 µM (inactive)
same,GI50,Hs-578T,44.7 µM (inactive)
same,GI50,IGROV-1,< 0.0159 µM (active)
same,GI50,K562,35.4 µM (inactive)
same,GI50,KM12,33.6 µM (inactive)
same,GI50,LOX IMVI,53.2 µM (inactive)
same,GI50,M14,61.7 µM (inactive)
same,GI50,MCF7,0.063 µM (active)
same,GI50,MDA-MB-231,41.1 µM (inactive)
same,GI50,MDA-MB-435,29.4 µM (inactive)
same,GI50,MDA-N,42 µM (inactive)
same,GI50,MOLT-4,26.2 µM (inactive)
same,GI50,Malme-3M,> 90.8 µM (inactive)
same,GI50,NCI-H226,> 72.3 µM (inactive)
same,GI50,NCI-H23,> 100 µM (inactive)
same,GI50,NCI-H460,26.6 µM (inactive)
same,GI50,NCI-H522,20.8 µM (inactive)
same,GI50,NCI/ADR-RES,49 µM (inactive)
same,GI50,OVCAR-3,22.9 µM (inactive)
same,GI50,OVCAR-4,> 100 µM (inactive)
same,GI50,OVCAR-8,> 100 µM (inactive)
same,GI50,PC-3,42.6 µM (inactive)
same,GI50,RPMI-8226,18.1 µM (inactive)
same,GI50,RXF 393,> 100 µM (inactive)
same,GI50,SF-268,> 94 µM (inactive)
same,GI50,SF-295,> 78 µM (inactive)
same,GI50,SF-539,> 100 µM (inactive)
same,GI50,SK-MEL-28,> 100 µM (inactive)
same,GI50,SK-MEL-2,> 100 µM (inactive)
same,GI50,SK-MEL-5,20.4 µM (inactive)
same,GI50,SK-OV-3,> 100 µM (inactive)
same,GI50,SN12C,99.8 µM (inactive)
same,GI50,SNB-19,> 58.1 µM (inactive)
same,GI50,SNB-75,36.6 µM (inactive)
same,GI50,SR,55 µM (inactive)
same,GI50,SW-620,62.2 µM (inactive)
same,GI50,T47D,1.89 µM (inactive)
same,GI50,TK-10,0.0425 µM (active)
same,GI50,U-251,> 74.1 µM (inactive)
same,GI50,UACC-257,> 100 µM (inactive)
same,GI50,UACC-62,97.5 µM (inactive)
same,GI50,UO-31,8.53 µM (inactive)

# — ChEMBL document CHEMBL1201862, “PubChem BioAssay data set” (2004)
